Here are results for nine compounds from PubChem BioAssay (NCI).

Test systems include A498 renal; HCT-116 colon; HL-60(TB) leukemia; K-562 leukemia; NCI-H226 lung; NCI-H460 lung; NCI-H522 lung; SF-268 CNS; SK-MEL-2 melanoma; TK-10 renal.
Test in all cases: inhibition of tumour cell growth, NCI panel, 48 h

“And” between values parts separate entries of the source, which are not always exact repeats. Equal entries are not always repeated.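 Exposure lasted 48 hours, with cells grown in 96-well plates and compounds tested at five concentrations. Here, GI50 denotes the concentration required for 50% inhibition of growth. The concentration for full growth arrest is given as TGI.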

Regarding `Cc1cc(-c2nnc(/C=C/c3ccc4c(c3)OCO4)o2)n[nH]1`, the GI50 is 7.54 µM with A498 renal; 11.9 µM in the test with HCT-116 colon; 1.34 µM in the test on HL-60(TB) leukemia; 1.83 µM in the test on K-562 leukemia; over 50 µM in the test on NCI-H226 lung; 15.1 µM in the test on NCI-H460 lung. Also, the GI50 with NCI-H522 lung was 8.15 µM; with SF-268 CNS, 6.5 µM; in the test on SK-MEL-2 melanoma, 12.1 µM; in the test with TK-10 renal it was 22.3 µM. Moreover, the TGI in the test on A498 renal was 40.7 µM; in the test on HCT-116 colon it was over 50 µM; with HL-60(TB) leukemia, 3.99 µM; with K-562 leukemia, over 50 µM; in the test with NCI-H226 lung, over 50 µM; in the test with NCI-H460 lung it was over 50 µM. Further, the TGI in the test with NCI-H522 lung is 26.7 µM; with SF-268 CNS, over 50 µM; in the test with SK-MEL-2 melanoma it was over 50 µM; with TK-10 renal it was over 50 µM.

On to `CNCC/C=C1\c2cc3c(cc2-c2c1c1cc(OC)c(OC)cc1c(=O)n2C)OCO3`, for which the GI50 in the test on A498 renal is 2.97 µM; in the test on HCT-116 colon, 0.0679 µM; in the test with HL-60(TB) leukemia, 0.239 µM; in the test with K-562 leukemia, 0.196 µM; in the test on NCI-H226 lung, 0.232 µM; in the test on NCI-H460 lung it was 0.196 µM. The GI50 is 0.122 µM with NCI-H522 lung, 0.992 µM in the test with SF-268 CNS, 9.68 µM in the test on SK-MEL-2 melanoma and 0.941 µM in the test with TK-10 renal. Moreover, the TGI with A498 renal was 12 µM; in the test on HL-60(TB) leukemia it was 2.57 µM; in the test with NCI-H226 lung, 2.11 µM; in the test with NCI-H460 lung it was 5.97 µM; with NCI-H522 lung, 16.2 µM; with SF-268 CNS, 25.1 µM. The TGI is over 100 µM in the test with SK-MEL-2 melanoma and 8.56 µM in the test with TK-10 renal.

Turning to `CCCCCCCCCC[C@@H](O)[C@@H]1CC[C@@H]([C@@H]2CC[C@@H]([C@@H](O)CCCCCCCCCC[C@H](O)CC3=CC(C)OC3=O)O2)O1` (some centres undefined), the GI50 was 8.48 µM with A498 renal; 1.54 µM with HL-60(TB) leukemia; 2.94 µM with K-562 leukemia; 3.4 µM with NCI-H460 lung; 3.29 µM in the test on SF-268 CNS; 1.23 µM in the test with SK-MEL-2 melanoma. Also, in the test on TK-10 renal, the GI50 is 5.18 µM. The TGI in the test on A498 renal is 8.64 µM and 34.9 µM; with HCT-116 colon it was 28.1 µM; in the test on HL-60(TB) leukemia, 2.96 µM and 5.84 µM; in the test with K-562 leukemia, over 100 µM; in the test on NCI-H226 lung, 3.49 µM; in the test with NCI-H460 lung it was over 100 µM. Also, the TGI in the test on NCI-H522 lung was 13.8 µM; in the test on SK-MEL-2 melanoma, 4.68 µM and 31.2 µM; in the test on TK-10 renal, 9.07 µM and 26 µM.

For the compound `C1OC1CN1CCN(CC2CO2)CC1` (centres undefined), the TGI in the test on A498 renal is over 100 µM; in the test with HCT-116 colon it was over 100 µM; in the test on HL-60(TB) leukemia, over 88.7 µM; in the test with K-562 leukemia, over 100 µM; with NCI-H226 lung it was over 100 µM; in the test on NCI-H460 lung, over 100 µM. In addition, the TGI in the test with NCI-H522 lung, in the test with SF-268 CNS, in the test on SK-MEL-2 melanoma and with TK-10 renal was over 100 µM throughout.

For `O=C1CC[C@H](N2Cc3c(OCc4ccc(CN5CCOCC5)cc4)cccc3C2=O)C(=O)N1`, the GI50 is over 100 µM in the test on A498 renal; over 100 µM in the test on HCT-116 colon; 77.6 µM with HL-60(TB) leukemia; over 100 µM with K-562 leukemia; over 100 µM with NCI-H226 lung; over 100 µM in the test on NCI-H460 lung. Further, the GI50 in the test with NCI-H522 lung, in the test with SF-268 CNS, with SK-MEL-2 melanoma and in the test on TK-10 renal was over 100 µM in each case. Besides, the TGI in the test on A498 renal, in the test on HCT-116 colon, with HL-60(TB) leukemia, with K-562 leukemia, in the test with NCI-H226 lung and in the test on NCI-H460 lung was over 100 µM each time. For the same compound, the TGI in the test on NCI-H522 lung, in the test on SF-268 CNS, in the test on SK-MEL-2 melanoma and in the test with TK-10 renal was over 100 µM in each case.

Take `O=C(O)[C@@H]1OCCOCCO[C@@H](C(=O)O)[C@H](C(=O)O)OCCOCCO[C@H]1C(=O)O`: the TGI in the test with A498 renal is over 100 µM; in the test on HCT-116 colon, over 100 µM; in the test on HL-60(TB) leukemia, 38.4 µM; in the test with K-562 leukemia, over 100 µM; with NCI-H226 lung it was over 100 µM; in the test on NCI-H460 lung it was over 100 µM. Besides, the TGI in the test with NCI-H522 lung, in the test on SF-268 CNS, with SK-MEL-2 melanoma and in the test with TK-10 renal was over 100 µM in each case.

On to `CC1=C(C(=O)NCc2ccccc2)C(c2ccc(Cl)c(Cl)c2)C(C(=O)NCc2ccccc2)=C(C)N1`, for which the TGI in the test on A498 renal, in the test with HCT-116 colon, in the test on HL-60(TB) leukemia, with K-562 leukemia, with NCI-H226 lung and with NCI-H460 lung was over 100 µM each time. Moreover, the TGI in the test with NCI-H522 lung, in the test with SF-268 CNS, in the test with SK-MEL-2 melanoma and with TK-10 renal was over 100 µM each time.

With `N#COc1ccc(Oc2ccccc2)cc1`, the TGI in the test on A498 renal was over 100 µM; with HCT-116 colon, over 100 µM; with HL-60(TB) leukemia it was 75.8 µM; in the test with K-562 leukemia it was over 100 µM; in the test on NCI-H226 lung, over 100 µM; in the test with NCI-H460 lung, over 100 µM. Besides, the TGI with NCI-H522 lung, in the test with SF-268 CNS, with SK-MEL-2 melanoma and with TK-10 renal was over 100 µM in each case.

As for `CC1=C(/C=C/C(=O)CC(=O)/C=C/C2=C(C)CCCC2(C)C)C(C)(C)CCC1`, the GI50 is 51.7 µM in the test on A498 renal; 27.7 µM in the test with HCT-116 colon; 5.42 µM in the test on HL-60(TB) leukemia; 18.7 µM in the test with K-562 leukemia; 23.3 µM with NCI-H226 lung; 18.6 µM with NCI-H460 lung. For the same compound, the GI50 in the test with NCI-H522 lung was 26.5 µM; in the test on SF-268 CNS it was 18.2 µM; in the test with SK-MEL-2 melanoma it was 20.3 µM; with TK-10 renal, 28.1 µM. Also, the TGI in the test on A498 renal was over 100 µM; in the test on HCT-116 colon it was over 100 µM; in the test with HL-60(TB) leukemia, 24.2 µM; in the test on K-562 leukemia, over 100 µM; in the test with NCI-H226 lung it was over 100 µM; in the test with NCI-H460 lung, 82.1 µM. Moreover, the TGI in the test on NCI-H522 lung is over 100 µM; in the test on SF-268 CNS, over 100 µM; in the test with SK-MEL-2 melanoma, 77.8 µM; in the test with TK-10 renal, over 100 µM.
